Laboratory results as given in ChEMBL document CHEMBL3046725, “Synthesis and preliminary antibacterial evaluation of hydroxamic acid and N-formyl hydroxylamine derivatives bearing oxazole ring” (2013).
Values after ≈ are worked out from the molar mass of the structure shown.

What was measured:
Format in all cases: functional
[1] = system: Pseudomonas aeruginosa; assay: Antibacterial activity against Pseudomonas aeruginosa ATCC 27853 after 24 hr by broth microdilution method; details: ATCC 27853, 24 h
[2] = system: Streptococcus pneumoniae; assay: Antibacterial activity against Streptococcus pneumoniae NCTC 7466 after 24 hr by broth microdilution method; details: NCTC 7466, 24 h
[3] = system: Staphylococcus aureus; assay: Antibacterial activity against Staphylococcus aureus ATCC 25923 after 24 hr by broth microdilution method; details: ATCC 25923, 24 h
[4] = system: Escherichia coli; assay: Antibacterial activity against Escherichia coli ATCC 25922 after 24 hr by broth microdilution method; details: ATCC 25922, 24 h

| MIC [1] | MIC [2] | MIC [3] | MIC [4] | SMILES |
| --- | --- | --- | --- | --- |
| 100 µg/mL (≈ 225 µM) | 200 µg/mL (≈ 450 µM) | 50 µg/mL (≈ 112 µM) | 25 µg/mL (≈ 56.2 µM) | CCCC[C@H](CC(=O)NO)C(=O)N[C@H](c1nc(C(=O)Nc2ccc(C)cc2)co1)C(C)C |
| > 200 µg/mL | > 200 µg/mL | > 200 µg/mL | > 200 µg/mL | CCCC[C@H](CN(O)C=O)C(=O)N[C@H](c1nc(C(=O)Nc2ccc3c(c2)OCO3)co1)C(C)C |
| > 200 µg/mL | > 200 µg/mL | > 200 µg/mL | > 200 µg/mL | CCCC[C@H](CN(O)C=O)C(=O)N[C@H](c1nc(C(=O)Nc2ccc(F)cn2)co1)C(C)C |
| > 200 µg/mL | > 200 µg/mL | > 200 µg/mL | > 200 µg/mL | CCCC[C@H](CN(O)C=O)C(=O)N[C@H](c1nc(C(=O)Nc2ccc(F)c(F)c2)co1)C(C)C |
| 100 µg/mL (≈ 223 µM) | > 200 µg/mL | 100 µg/mL (≈ 223 µM) | 100 µg/mL (≈ 223 µM) | CCCC[C@H](CC(=O)NO)C(=O)N[C@H](c1nc(C(=O)Nc2ccc(F)cc2)co1)C(C)C |
| 100 µg/mL (≈ 222 µM) | > 200 µg/mL | 100 µg/mL (≈ 222 µM) | 50 µg/mL (≈ 111 µM) | CCCC[C@H](CC(=O)NO)C(=O)N[C@H](c1nc(C(=O)Nc2ccc(F)cn2)co1)C(C)C |
| 100 µg/mL (≈ 244 µM) | 50 µg/mL (≈ 122 µM) | 25 µg/mL (≈ 60.9 µM) | 12.5 µg/mL (≈ 30.4 µM) | CCCC[C@H](CN(O)C=O)C(=O)N[C@H](c1nc(C(=O)N(CC)CC)co1)C(C)C |
| > 200 µg/mL | > 200 µg/mL | > 200 µg/mL | > 200 µg/mL | CCCC[C@H](CN(O)C=O)C(=O)N[C@H](c1nc(C(=O)Nc2ccc(C)cc2)co1)C(C)C |
| 100 µg/mL (≈ 237 µM) | > 200 µg/mL | 50 µg/mL (≈ 118 µM) | 25 µg/mL (≈ 59.2 µM) | CCCC[C@H](CN(O)C=O)C(=O)N[C@H](c1nc(C(=O)N2CCCCC2)co1)C(C)C |
| > 200 µg/mL | > 200 µg/mL | > 200 µg/mL | > 200 µg/mL | CCCC[C@H](CN(O)C=O)C(=O)N[C@H](c1nc(C(=O)Nc2ccc(F)cc2)co1)C(C)C |

| SMILES | MIC [1] | MIC [2] | MIC [3] | MIC [4] |
| --- | --- | --- | --- | --- |
| Cl.O=C(O)c1cn(C2CC2)c2cc(N3CCNCC3)c(F)cc2c1=O [CIPROFLOXACIN HYDROCHLORIDE] | – | 6.25 µg/mL | – | – |
